In data set [1] the test system is Candida albicans. Description: Antibiofilm activity against Candida albicans SC5314 after 24 hrs by XTT assay. Particulars: SC5314, 24 h. In kind it is functional. For orientation: Formazan colour is commonly taken as a measure of viable cells.
Data set [2] in a line: Cytotoxicity against human HepG2 assessed as reduction in cell viability after 24 hrs by CellTiter-Glo luminescent assay. The format is cell-based. Particulars: HepG2 cells. A general note: ATP-based viability assays read luminescence as a measure of living cells.
For data set [3], the system named is Candida albicans. Description: Antibiofilm activity against Candida albicans CAF2-1 after 48 hrs by Alamar blue assay. The format is functional. Particulars: CAF2-1, 48 h.
Data set [4] deals with Candida albicans. Put plainly: Antibiofilm activity against Candida albicans SC5314 after 48 hrs by Alamar blue assay. The format is functional. Particulars: SC5314, 48 h. In general terms: Resazurin is reduced to fluorescent resorufin, in cell work by metabolically active cells.
Data set [5] concerns Candida albicans. Description: Antibiofilm activity against fluconazole-resistant Candida albicans 29E clinical isolates after 48 hrs by Alamar blue assay. In kind it is functional.
In data set [6] the test system is Candida albicans. Put plainly: Antibiofilm activity against Candida albicans SC5314 clinical isolates after 24 hrs by XTT assay. The format is functional.
Data set [7] deals with Candida albicans. Description: Antibiofilm activity against Candida albicans DAY185 after 24 hrs by XTT assay. In kind it is functional.
Data set [8] deals with Candida albicans. Put plainly: Antifungal activity against Candida albicans DAY185 by CLSI method. The format is functional.
The subject of data set [9] is Candida albicans. Description: Antibiofilm activity against Candida albicans SC5314 after 24 hrs in presence of miconazole by Cell-Titer Blue assay. In kind it is functional.
The subject of data set [10] is Candida albicans. Description: Antibiofilm activity against Candida albicans SC5314 after 24 hrs by Cell-Titer Blue assay. In kind it is functional.
For data set [11], the system named is Candida albicans. Description: Antibiofilm activity against Candida albicans CAIF-100 after 24 hrs by Cell-Titer Blue assay. In kind it is functional.

pIC50: −log10 of the molar value. Counter-ions that a name gives are not always drawn.

The pIC50 is the negative decadic logarithm of the IC50, by convention in mol/L. The term CC50 denotes the concentration at which the toxic effect on the cells reaches its halfway point. The MIC is the lowest concentration found to suppress growth. Read a low MIC as inhibition by little substance.

Compound `Nc1cc(S(N)(=O)=O)ccc1SSc1ccc(S(N)(=O)=O)cc1N` showed a pIC50 with Candida albicans [1] of 5.46. The CC50 at 24 h in data set [2] was 106 µM.
Take `CCN1/C(=C\c2ccc3ccccc3[n+]2CC)Sc2cc(C)ccc21`: the pIC50 with Candida albicans [3], in the data set with Candida albicans [4] and in the data set with Candida albicans [5] was 4.09 to 5.55 each time.
Turning to `CCN1/C(=C/c2ccc3cc(C)ccc3[n+]2CC)Sc2cc(C)c(C)cc21`, the pIC50 in the data set with Candida albicans [3], in the data set on Candida albicans [4] and in the data set with Candida albicans [5] was 3.57 to 3.64 in each case.
As for `Cc1ccccc1OCc1n(CC(=O)OC2CC(C)CCC2C(C)C)c2ccccc2[n+]1C` (stereo not given), the negative-log IC50 (pIC50) in the data set with Candida albicans [3], with Candida albicans [4] and in the data set on Candida albicans [5] was 4.61 to 5.01 throughout.
With `CCC(CO)N1C(C)=CC(=Cc2sc3ccccc3[n+]2Cc2ccccc2)C=C1C` (stereo not given), the pIC50 in the data set with Candida albicans [3], with Candida albicans [4] and in the data set on Candida albicans [5] was 3.92 to 5.77 each time.
In the data set on Candida albicans [1], `CC1OC(CC(=O)O)Cc2c(O)c3c(c(O)c21)C(=O)C=C(C1=CC(=O)c2c(O)c4c(c(O)c2C1=O)CC(CC(=O)O)OC4C)C3=O` (stereo not given) had a pIC50 of 5.48. For the same compound, the CC50 at 24 h in [2] is 96.1 µM.
With `Cc1cc(OCCOCC[N+](C)(C)Cc2ccccc2)ccc1C(C)(C)CC(C)(C)C`, the pIC50 in the data set on Candida albicans [6] (Candida albicans, SC5314, 24 h) is 5.05.
Compound `CCCCCCCCCC(=O)[C@H]1C(=O)N[C@@H](CC(C)C)C(=O)N[C@H](C)C(=O)N2CCC[C@H]2C(=O)N[C@@H](C(C)C)C(=O)N[C@H]2CS[C@H]1CNC2=O` showed a pIC50 with Candida albicans [7] of less than 3.70. In the data set on Candida albicans [8], this compound had an MIC of more than 200 µM.
Consider `CCCCCCCCCC(=O)[C@@H]1C(=O)N[C@@H](CC(C)C)C(=O)N[C@H](C)C(=O)N2CCC[C@H]2C(=O)N[C@@H](C(C)C)C(=O)N[C@H]2CS[C@H]1CNC2=O`, for which the pIC50 with Candida albicans [7] was 5.47. Besides, in the data set with Candida albicans [8], the MIC was more than 200 µM.
`Cc1c(CN2CCC3(CCCN(Cc4ccc(C(C)C)cc4)C3=O)C2)cnn1C` (stereo not given) gave a pIC50 in the data set with Candida albicans [1] of 5.50. Moreover, the CC50 at 24 h in data set [2] fell in the range of 62.7 to 104 µM.
Consider `CCCCCCCCCC(=O)[C@@H]1C(=O)N[C@@H](CC(C)C)C(=O)N[C@H](C)C(=O)N2CCC[C@H]2C(=O)N[C@@H]([C@@H](C)CC)C(=O)N[C@H]2CS[C@H]1CNC2=O`, for which the pIC50 with Candida albicans [7] was 5.04. In addition, in the data set on Candida albicans [8], the MIC is more than 200 µM.
`CC[C@@]1([C@@H]2O[C@@H]([C@H]3O[C@@](O)(CO)[C@H](C)C[C@@H]3C)C[C@@H]2C)CC[C@H]([C@]2(C)CCC3(C[C@H](O)[C@@H](C)[C@@H]([C@@H](C)[C@@H](OC)[C@H](C)C(=O)O)O3)O2)O1` (stereo not given in full) showed a pIC50 in the data set on Candida albicans [6] (Candida albicans, SC5314, 24 h) of 5.19.
As to `CC(C)c1ccc(CN2CCCC3(CCN(CC4CCSCC4)C3)C2=O)cc1` (stereo not given), the pIC50 in the data set with Candida albicans [1] is 5.47. For the same compound, the CC50 at 24 h in [2] lay in the range of 62.7 to 104 µM.
The compound `CC[C@H](C)[C@H](N)C1=N[C@H](C(=O)N[C@@H](CC(C)C)C(=O)N[C@H](CCC(=O)O)C(=O)N[C@@H](C(=O)N[C@@H]2CCCCNC(=O)[C@H](CC(N)=O)NC(=O)[C@@H](CC(=O)O)NC(=O)[C@H](Cc3cnc[nH]3)NC(=O)[C@@H](Cc3ccccc3)NC(=O)[C@H]([C@@H](C)CC)NC(=O)[C@@H](CCCN)NC2=O)[C@@H](C)CC)CS1` gave a pIC50 in the data set on Candida albicans [1] of 5.67. Also, the CC50 at 24 h in [2] stood at 286 µM.
On to `CC[C@H](C)C1NC(=O)[C@@H](CCCN)NC(=O)[C@@H](NC(=O)[C@@H](NC(=O)[C@@H](CCC(=O)O)NC(=O)[C@H](CC(C)C)NC(=O)[C@@H]2CSC([C@@H](N)[C@@H](C)CC)=N2)[C@@H](C)CC)CCCCNC(=O)[C@H](CC(N)=O)NC(=O)[C@@H](CC(=O)O)NC(=O)[C@H](Cc2c[nH]cn2)NC(=O)[C@@H](Cc2ccccc2)NC1=O` (stereo not given in full), for which, in the data set with Candida albicans [6] (Candida albicans, SC5314, 24 h), the pIC50 was 4.77.
`CC(C)c1ccc(CN2CCCC3(CCN(Cc4cccnc4)C3)C2=O)cc1` (stereo not given) showed a pIC50 with Candida albicans [1] of 5.34. Further, in data set [2], the CC50 at 24 h lay within 62.7 to 104 µM.
For the compound `Cc1ncc(CN2CCC3(CCCN(Cc4ccc(C(C)C)cc4)C3=O)C2)cn1` (stereo not given), the pIC50 in the data set on Candida albicans [1] was 5.57. The CC50 at 24 h in data set [2] lay within 62.7 to 104 µM.
Regarding `CO[C@H]1O[C@@H]2O[C@@]3(C)CC[C@H]4[C@H](C)CC[C@@H]([C@H]1C)[C@@]24OO3`, in the data set on Candida albicans [9], the “fractional inhibitory concentration index (FICI)” value is on record as 0.112.
The compound `CCCCC(CC)CNC(=N)NC(=N)NCCCCCCNC(=N)NC(=N)NCC(CC)CCCC` (stereo not given) [ALEXIDINE DIHYDROCHLORIDE] had a pIC50 in the data set with Candida albicans [6] (Candida albicans, SC5314, 24 h) of 5.27.
Turning to `C[C@@H]1CC[C@H]2[C@@H](C)C(=O)O[C@@H]3O[C@@]4(C)CC[C@@H]1[C@]32OO4` [ARTEMISININ], the “fractional inhibitory concentration index (FICI)” value with Candida albicans [9] came out at 0.186.
On to `C[C@H]1[C@@H](O)O[C@@H]2O[C@@]3(C)CC[C@H]4[C@H](C)CC[C@@H]1[C@@]24OO3` [ARTENIMOL], for which the “fractional inhibitory concentration index (FICI)” value in the data set with Candida albicans [9] is 0.145.
Turning to `C[C@H]1[C@H](OC(=O)CCC(=O)O)O[C@@H]2O[C@@]3(C)CC[C@H]4[C@H](C)CC[C@@H]1[C@@]24OO3` [ARTESUNATE], the “fractional inhibitory concentration index (FICI)” value in the data set with Candida albicans [9] is less than 0.069.
`CCc1oc2ccccc2c1C(=O)c1cc(Br)c(O)c(Br)c1` [BENZBROMARONE] gave a pIC50 in the data set on Candida albicans [6] (Candida albicans, SC5314, 24 h) of 5.70.
Compound `Oc1c(Br)cc(Br)c2cccnc12` [BROXYQUINOLINE] gave an MBEC2 in the data set on Candida albicans [10] of 1.2 µM.
In the data set on Candida albicans [6] (Candida albicans, SC5314, 24 h), `N=C(NCCCCCCNC(=N)NC(=N)Nc1ccc(Cl)cc1)NC(=N)Nc1ccc(Cl)cc1` [CHLORHEXIDINE] had a pIC50 of 4.66.
For the compound `Oc1c(Cl)cc(Cl)c2cccnc12` [CHLOROXINE], the pIC50 with Candida albicans [3] is 4.88 to 5.92; in the data set on Candida albicans [4], 4.88 to 5.92; in the data set with Candida albicans [5], 4.88 to 5.92; in the data set with Candida albicans [6] (Candida albicans, SC5314, 24 h) it was 5.57.
In the case of `CN(C)CC/C=C1/c2ccccc2Sc2ccc(Cl)cc21.Cl` [CHLORPROTHIXENE HYDROCHLORIDE], the MBIC50 with Candida albicans [11] was 17 µM.
Take `Oc1c(I)cc(Cl)c2cccnc12` [CLIOQUINOL]: the pIC50 in the data set with Candida albicans [6] (Candida albicans, SC5314, 24 h) is 5.59.
In turn, `C#CCN(C)CCCOc1ccc(Cl)cc1Cl.Cl` [CLORGYLINE HYDROCHLORIDE] had an MBIC50 with Candida albicans [11] of 24 µM.
On the same count and under the same terms, with `O=C1c2cccc(O)c2C(=O)c2c(O)cccc21` [DANTHRON] the figure was 12 µM; with `CCN(CC)CCOC(=O)C1(C2CCCCC2)CCCCC1.Cl` [DICYCLOMINE HYDROCHLORIDE], 60 µM.
In the data set with Candida albicans [10], `CN(C)c1ccc(C(=C2C=CC(=[N+](C)C)C=C2)c2ccc(N(C)C)cc2)cc1.[Cl-]` [GENTIAN VIOLET] had an MBEC2 of 1.5 µM.
`Oc1c(Cl)cc(Cl)c(Cl)c1Cc1c(O)c(Cl)cc(Cl)c1Cl` [HEXACHLOROPHENE]: in the data set on Candida albicans [10], the MBEC2 stood at 9.3 µM. The pIC50 in the data set with Candida albicans [6] (Candida albicans, SC5314, 24 h) was 5.29.
Regarding `O=[N+]([O-])c1ccc(O)c2ncccc12` [NITROXOLINE], the pIC50 in the data set on Candida albicans [3], in the data set with Candida albicans [4] and with Candida albicans [5] was 5.24 to 6.00 each time. The same compound yielded an MBEC2 in the data set on Candida albicans [10] of 3.1 µM.
`C1CCC(C(CC2CCCCN2)C2CCCCC2)CC1.O=C(O)/C=C\C(=O)O` (stereo not given) [PERHEXILINE MALEATE] registered an MBIC50 with Candida albicans [11] of 39 µM.
With `Cc1cc(/C=C/c2ccc3cc(N(C)C)ccc3[n+]2C)c(C)n1-c1ccccc1.Cc1cc(/C=C/c2ccc3cc(N(C)C)ccc3[n+]2C)c(C)n1-c1ccccc1.O=C([O-])c1cc2ccccc2c(Cc2c(O)c(C(=O)[O-])cc3ccccc23)c1O` [PYRVINIUM PAMOATE], the MBEC2 in the data set with Candida albicans [10] was 3.9 µM. The compound also showed a pIC50 in the data set on Candida albicans [6] (Candida albicans, SC5314, 24 h) of 5.17.
With `CCCCCCCCCCCCCCCC[N+](C)(C)CCN(Cc1ccc(OC)cc1)c1ncccn1` [THONZONIUM BROMIDE], the pIC50 with Candida albicans [6] (Candida albicans, SC5314, 24 h) is 4.89.
On to `CN(C)CCOc1ccc(/C(=C(/CCCl)c2ccccc2)c2ccccc2)cc1.O=C(O)CC(O)(CC(=O)O)C(=O)O` [TOREMIFENE CITRATE], for which the MBIC50 with Candida albicans [11] was 19.5 µM.
In the data set on Candida albicans [6], THIMEROSAL gave a pIC50 of 6.70.

Source of the values: ChEMBL document CHEMBL4007391, “Tackling Fungal Resistance by Biofilm Inhibitors” (J Med Chem, 2017).
